± gives the expanded uncertainty stated by the source.
Settings: Transpiration method

Cn1c(=O)c2c(ncn2C)n(C)c1=O [caffeine]
Settings | vapor or sublimation pressure [kPa]
366.2 K, Crystal 2 | 0.00017 ± 1e-05
373.3 K, Crystal 2 | 0.00033 ± 2e-05
379.9 K, Crystal 2 | 0.00055 ± 3e-05
383.9 K, Crystal 2 | 0.00077 ± 4e-05
386.9 K, Crystal 2 | 0.00106 ± 5e-05
389.8 K, Crystal 2 | 0.00128 ± 6e-05
395.9 K, Crystal 2 | 0.00223 ± 0.00011
400.9 K, Crystal 2 | 0.00338 ± 0.00017
405 K, Crystal 2 | 0.00441 ± 0.00022
406 K, Crystal 2 | 0.00525 ± 0.00026
408 K, Crystal 2 | 0.00577 ± 0.00029
410.1 K, Crystal 2 | 0.00693 ± 0.00035
420.2 K, Crystal 1 | 0.01448 ± 0.00072
424.9 K, Crystal 1 | 0.02064 ± 0.001
430.1 K, Crystal 1 | 0.02868 ± 0.0014
434.5 K, Crystal 1 | 0.03685 ± 0.0018

— the NIST ThermoML archive (doi:10.1016/j.jct.2008.07.002)
